Patent US8536351B2, “2-aryl-5-heterocyclyl-cyclohexane-1,3,dione compounds and their use as herbicides” (Syngenta Crop Protection LLC, priority 2007, dated 2013)

Key:
Assay type in all cases: in vivo
Setaria faberi (SETFA) [1] = experiment: Post-emergence activity, glasshouse pot test (100=total damage to plant; 0=no damage to plant); details: rate 500 g/ha, evaluated 14 or 15 days after spraying
Experimental: (§1) Monocotyledonous and dicotyledonous test plants were sown in standard soil in pots. After cultivation for one day (pre-emergence) or after 10 days cultivation (post-emergence) under controlled conditions in a glasshouse, the plants were sprayed with an aqueous spray solution derived from the formulation of the technical active ingredient in 0.6 ml acetone and 45 ml formulation solution containing 10.6% Emulsogen EL (Registry number 61791-12-6), 42.2% N-methyl pyrrolidone, 42.2% dipropylene glycol monomethyl ether (Registry number 34590-94-8) and 0.2% X-77 (Registry number 11097-66-8). The test plants were then grown in a greenhouse under optimum conditions until, 14 or 15 days later for post-emergence and 19, 20 or 21 days for pre-emergence, the test was evaluated (100=total damage to plant; 0=no damage to plant). Alopecurus myosuroides (ALOMY), Avena fatua (AVEFA), Lolium perenne (LOLPE), Setaria faberi (SETFA), Digitaria sanguinalis (DIGSA), Echinochloa crus-galli (ECHCG) Post-Emergence Activity

Lolium perenne (LOLPE) [2] = experiment: as above; details: 336 h, rate 500 g/ha, evaluated 14 or 15 days after spraying
Experimental: as §1

Avena fatua (AVEFA) [3] = experiment: as above; details: 336 h, rate 500 g/ha, evaluated 14 or 15 days after spraying
Experimental: as §1

[4] = system: Digitaria sanguinalis (DIGSA); experiment: as above; details: rate 500 g/ha, evaluated 14 or 15 days after spraying
Experimental: as §1

[5] = system: Echinochloa crus-galli (ECHCG); experiment: as above; details: rate 500 g/ha, evaluated 14 or 15 days after spraying
Experimental: as §1

[6] = system: Alopecurus myosuroides (ALOMY); experiment: as above; details: 336 h, rate 500 g/ha, evaluated 14 or 15 days after spraying
Experimental: as §1

Setaria faberi (SETFA) [7] = experiment: Pre-emergence activity, glasshouse pot test (100=total damage to plant; 0=no damage to plant); details: rate 500 g/ha, evaluated 19, 20 or 21 days after spraying
Experimental: as §1, with “Pre-Emergence” for “Post-Emergence”

Lolium perenne (LOLPE) [8] = experiment: as above; details: rate 500 g/ha, evaluated 19, 20 or 21 days after spraying
Experimental: as §1, with “Pre-Emergence” for “Post-Emergence”

Avena fatua (AVEFA) [9] = experiment: as above; details: rate 500 g/ha, evaluated 19, 20 or 21 days after spraying
Experimental: as §1, with “Pre-Emergence” for “Post-Emergence”

[10] = system: Digitaria sanguinalis (DIGSA); experiment: as above; details: rate 500 g/ha, evaluated 19, 20 or 21 days after spraying
Experimental: as §1, with “Pre-Emergence” for “Post-Emergence”

[11] = system: Echinochloa crus-galli (ECHCG); experiment: as above; details: rate 500 g/ha, evaluated 19, 20 or 21 days after spraying
Experimental: as §1, with “Pre-Emergence” for “Post-Emergence”

[12] = system: Alopecurus myosuroides (ALOMY); experiment: as above; details: rate 500 g/ha, evaluated 19, 20 or 21 days after spraying
Experimental: as §1, with “Pre-Emergence” for “Post-Emergence”

| Compound | pest or weed control at 500 g/ha (Setaria faberi (SETFA) [1]) | pest or weed control at 500 g/ha (Lolium perenne (LOLPE) [2]) | pest or weed control at 500 g/ha (Avena fatua (AVEFA) [3]) | pest or weed control at 500 g/ha [4] | pest or weed control at 500 g/ha [5] | pest or weed control at 500 g/ha [6] | pest or weed control at 500 g/ha (Setaria faberi (SETFA) [7]) | pest or weed control at 500 g/ha (Lolium perenne (LOLPE) [8]) | pest or weed control at 500 g/ha (Avena fatua (AVEFA) [9]) | pest or weed control at 500 g/ha [10] | pest or weed control at 500 g/ha [11] | pest or weed control at 500 g/ha [12] |
| --- | --- | --- | --- | --- | --- | --- | --- | --- | --- | --- | --- | --- |
| CCc1cc(C)cc(CC)c1C1=C(O)CC(C2CCOC2)CC1=O (stereo not drawn) [Compound T4, 2-(2,6-diethyl-4-methylphenyl)-5-(tetrahydrofuran-3-yl)cyclohexane-1,3-dione] | 100% | 100% | 100% | 100% | 80% | 100% | 100% | 100% | 70% | 90% | 100% | 100% |
| CCc1ccc(-c2ccc(Cl)cc2)cc1C1=C(O)CC(C2CCOC2)CC1=O (stereo not drawn) [Compound T6] | 100% | 100% | 90% | 100% | 100% | 100% | 100% | 100% | 20% | 100% | 100% | 90% |
| Cc1ccc(-c2ccc(Cl)cc2)cc1C1=C(O)CC(C2CCOC2)CC1=O (stereo not drawn) [Compound T7] | 100% | 80% | 90% | 100% | 100% | 90% | 100% | 100% | 30% | 100% | 100% | 70% |
| CCc1ccc(-c2ccc(Cl)cc2)cc1C1=C(O)CC(C2CCOCC2)CC1=O (stereo not drawn) [Compound T8] | 90% | 100% | 70% | 90% | 90% | 80% | 100% | 80% | 60% | 100% | 100% | 100% |
| Cc1ccc(-c2ccc(Cl)cc2)cc1C1=C(O)CC(C2CCOCC2)CC1=O (stereo not drawn) [Compound T9] | 80% | 100% | 70% | 90% | 100% | 80% | 100% | 100% | 60% | 80% | 100% | 60% |
| CCc1cc(C)cc(C)c1C1=C(O)CC(C2CCOC2)CC1=O (stereo not drawn) [Compound T11] | 100% | 90% | 90% | 100% | 100% | 90% | 100% | 80% | 70% | 100% | 100% | 80% |
| CCc1cc(C)cc(C)c1C1=C(O)CC(C2CCOCC2)CC1=O (stereo not drawn) [Compound T12] | 100% | 90% | 90% | 100% | 100% | 90% | 100% | 100% | 90% | 100% | 100% | 90% |
| CCc1cc(C)cc(CC)c1C1=C(O)CC(C2CCCSC2)CC1=O (stereo not drawn) [Compound T13] | 100% | 100% | 100% | 90% | 90% | 100% | 100% | 100% | 80% | 100% | 100% | 90% |
| Cc1cc(C)c(C2=C(O)CC(C3CCCSC3)CC2=O)c(C)c1 (stereo not drawn) [Compound T14] | 90% | 60% | 30% | 90% | 80% | 70% | 90% | 70% | 20% | 90% | 70% | 60% |
| Cc1cc(C)c(C2=C(O)CC(C3CCSCC3)CC2=O)c(C)c1 (stereo not drawn) [Compound T15] | 90% | 60% | 20% | 80% | 70% | 60% | 90% | 80% | 60% | 70% | 20% | 60% |
| CCc1cc(C)cc(C)c1C1=C(O)CC(C2CCCSC2)CC1=O (stereo not drawn) [Compound T16] | 100% | 90% | 80% | 100% | 90% | 100% | 100% | 100% | 100% | 100% | 100% | 0% |
| Cc1cc(C)c(C2=C(O)CC(C3CCS(=O)(=O)CC3)CC2=O)c(C)c1 (stereo not drawn) [Compound T17] | 90% | 0% | 20% | 90% | 90% | 20% | 50% | 0% | 70% | 60% | 60% | 20% |
| CCc1cc(C)cc(CC)c1C1=C(O)CC(C2CCSCC2)CC1=O (stereo not drawn) [Compound T18] | 100% | 70% | 100% | 100% | 70% | 90% | 100% | 100% | 100% | 100% | 100% | 100% |
